Experimental data as given in patent publication US20020107202A1, “Synthetic complementary peptides and ophthalmologic uses thereof” (priority 1999, published 2002).
No end group written: not given here.

Assays:
[1] = tested on: N-acetyl-PGP activated PMN; test: Polarization assay: inhibition of N-acetyl-PGP activated PMN polarization; assay type: cell-based, human; details: for inhibitory properties against N-acetyl-PGP, fold less than the RTR dimer: comparison of ID50 values
Description: (§1) Following the technique of Ferrante and Thong^13, polymorphonuclear leukocytes were isolated from fresh heparinized human whole blood by centrifugation on Hypaque-Ficoll (density=1.114) according to a described method^14. […] Purified polymorphonuclear leukocytes were used in the polarization assay. All incubation mixtures were maintained between an osmolality of 280 to 320, a pH range of 7.2 to 7.6, 15 mM phosphate buffer, and 50 μM Ca^2+ and 50 μM Mg^2+.
(§2) The polarization assay^15 was performed in a blind fashion. This assay was used to determine the polymorphonuclear leukocyte response to chemoattractants and inhibitors by measuring the frequency and degree of cellular shape change. Briefly, 2×10^5 polymorphonuclear leukocytes were mixed with preincubated synthetic complementary peptides and chemoattractants in a reaction chamber (total volume=100 μl) at 37° C. for 5 min. At the end of the incubation period an aliquot was collected and mixed with an equal volume of 4% glutaraldehyde for microscopic observation. The remaining volume of each cell suspension was immediately centrifuged at 15,000× g for 5 seconds to remove cells. […] Polymorphonuclear leukocytes in each sample were observed microscopically and assigned scores of 0 (resting=spherical cell with a smooth membrane), 1 (activated=irregular cell with uneven membranes) or 2 (polarized=cell length≧width×2). Scores of 100 polymorphonuclear leukocytes for each sample were added to produce a polarization index. A dose response was performed for each chemoattractant. A concentration of each chemoattractant was chosen from the linear portion of each dose response curve and used as the positive control. Negative control samples consisted of polymorphonuclear leukocytes in HBSS only. […] The Student's t-test (unpaired) was used to analyze the differences in the mean polarization response between polymorphonuclear leukocytes activated with the chemoattractant in the absence or presence of complementary peptides.

[2] = tested on: PMN activated by ultrafiltered tripeptide chemoattractants; test: Polarization assay: inhibition of PMN polarization activated by alkali-degraded rabbit corneal ultrafiltrate; assay type: cell-based, human
Description: as §1, §2

LTB4 activated PMN = test: Polarization assay: inhibition of LTB4 activated PMN polarization; assay type: cell-based, human
Description: LTB4 was dissolved in ethanol and diluted with HBSS (pH 7.3) to a final ethanol concentration of 0.001%. Synthetic complementary peptides and synthetic chemoattractants were dissolved in HBSS (pH 7.3). When necessary, the osmolality was adjusted between 280 and 320 mOsm by adding a small amount of distilled water.
(§3) Following the technique of Ferrante and Thong^13, polymorphonuclear leukocytes were isolated from fresh heparinized human whole blood by centrifugation on Hypaque-Ficoll (density=1.114) according to a described method^14. Isolated polymorphonuclear leukocytes (96-99% viability) were resuspended in HBSS with 15 mM phosphate buffer at room temperature and gently agitated on a shaker. The purity of this cell suspension was ≧85% polymorphonuclear leukocytes, ≦5% mononuclear cells and platelets, with the remaining percentage consisting of red blood cells. Purified polymorphonuclear leukocytes were used in the polarization assay. All incubation mixtures were maintained between an osmolality of 280 to 320, a pH range of 7.2 to 7.6, 15 mM phosphate buffer, and 50 μM Ca^2+ and 50 μM Mg^2+.
The polarization assay^15 was performed in a blind fashion. […] The resulting supernatant was analyzed for lactic dehydrogenase activity.^16 All incubations generated lactate dehydrogenase activity correlating with <5% cell death. […]

resting PMNs = test: Polarization assay: substance alone on resting PMNs (agonist activity, chemoattractant response); assay type: cell-based, human; details: none up to the given concentration
Description: as §3
The polarization assay^15 was performed in a blind fashion. This assay was used to determine the polymorphonuclear leukocyte response to chemoattractants and inhibitors by measuring the frequency and degree of cellular shape change. Briefly, 2×10^5 polymorphonuclear leukocytes were mixed with preincubated synthetic complementary peptides and chemoattractants in a reaction chamber (total volume=100 μl) at 37° C. for 5 min. At the end of the incubation period an aliquot was collected and mixed with an equal volume of 4% glutaraldehyde for microscopic observation. The remaining volume of each cell suspension was immediately centrifuged at 15,000× g for 5 seconds to remove cells. The resulting supernatant was analyzed for lactic dehydrogenase activity.^16 All incubations generated lactate dehydrogenase activity correlating with <5% cell death. Polymorphonuclear leukocytes in each sample were observed microscopically and assigned scores of 0 (resting=spherical cell with a smooth membrane), 1 (activated=irregular cell with uneven membranes) or 2 (polarized=cell length≧width×2). Scores of 100 polymorphonuclear leukocytes for each sample were added to produce a polarization index. A dose response was performed for each chemoattractant. […]

[3] = tested on: alkali-injured rabbit eye; test: Alkali-injury model, corneal ulceration; assay type: in vivo
Description: Animals were maintained and treated in full compliance with the Association for Research in Vision and Ophthalmology (ARVO) Resolution on the Use of Animals in Research. Forty-eight New Zealand Dutch strain albino rabbits (Myrtles Rabbitry, Thompson Station, Tenn., U.S.A.) weighing 2.0 to 2.5 kg were anesthetized with ketamine HCl (12 mg/kg) and xylazine (7.5 mg/kg). Two drops of topical proparacaine (Allergan, Hormigueros, Puerto Rico) were placed in the right eye of each rabbit. Following ocular proptosis, a 12 mm plastic well was centered on the cornea and 0.4 ml of 1 N NaOH instilled into the well and left for a period of 35 sec. The alkali was aspirated and the well irrigated with 10 ml of physiological saline. Erythromycin ointment (0.5%) was applied two times a day and study medications given by the technique of Fraunfelder. Double blind examinations (slit lamp and dissecting microscopy) were conducted on Monday, Wednesday and Friday with photographs on Wednesday. Evaluation was made for the presence and size of epithelial defects, corneal ulceration, perforation and vascularization. Animals were randomly subdivided into two groups of 16 eyes each: 1) Phosphate buffered saline (PBS) control and 2) 800 μM (D)-RTR tetramer in PBS or 1.5 mM (L)-RTR tetramer in PBS alternating every hour. Each animal received one drop of the appropriate medication every hour for 14 hours a day for 33 days and dropping was discontinued until the end of the experiment on day 42.

[4] = day 42, 16 eyes, topical drops to day 33

Row | Substance | affinity for N-acetyl-PGP, fold greater than the RTR monomer [1] | inhibition of PMNs activated by the ultrafiltered tripeptide chemoattractants, in words [2] | antagonism of LTB4 activation of PMNs, in words (LTB4 activated PMN) | Agonist Activity (resting PMNs) | TOTAL ULCERS End of expt (day 42) (number) ([3]; 16 eyes, day 42) | TOTAL ULCERS End of expt (day 42) (percent of eyes) ([3]; 16 eyes, day 42) [%] | TOTAL ULCERS During expt (number) ([3]; 16 eyes, during experiment) | TOTAL ULCERS During expt (percent of eyes) ([3]; 16 eyes, during experiment) [%] | incidence of corneal ulcers after alkali-injury, in words ([3]; compared to PBS group) | number of ulcers ([3]; day 33, 16 eyes, 800 μM (D)- and 1.5 mM (L)-RTR tetramer drops alternating every hour) [ulcers] | ULCER DEPTH: Anterior (eyes) [3, 4] | ULCER DEPTH: Descemetocele (eyes) [3, 4] | ULCER DEPTH: Middle (eyes) [3, 4] | ULCER DEPTH: No Ulcer (eyes) [3, 4] | ULCER DEPTH: Perforation (eyes) [3, 4] | ULCER DEPTH: Posterior (eyes) [3, 4] | inhibition of N-acetyl-PGP activated PMN polarization, in words [1] | inhibitory properties against N-acetyl-PGP, fold less than the RTR dimer [1] [fold]
1 | ((H2N-Arg-Thr-Arg-Gly-Gly)2-Lys)2-Lys-Ala-CONH2 (H-RTRGG; also: tetrameric Lys-branched, on Lys-Ala-CONH2 core) [RTR tetramer] | 10,000 fold | inhibited | no effect on LTB4 | None, ≦ 8 mM | 6 | 37.5 | 7 | 43.8 | statistically significant reduction in the frequency of corneal ulceration | 4 | 4 | 1 | 0 | 9 | 0 | 2 | – | –
2 | Arg-Thr-Arg [RTR] | – | inhibited | – | None, ≦ 40 mM | – | – | – | – | – | – | – | – | – | – | – | – | only antagonistic at millimolar concentrations | 20
3 | RTRGG | – | inhibited | – | None, ≦ 40 mM | – | – | – | – | – | – | – | – | – | – | – | – | only antagonistic at millimolar concentrations | 20
